{
  "source": "patent US12642780B2",
  "about": "“Methods and compositions to treat and prevent viral infections and acute respiratory distress syndrome” (priority 2020, dated 2026)",
  "key": {"in vivo": {"experiment": "in vivo", "settings": "male, C57BL/6, mouse, ip, 50 mg/kg", "method": "(§1) Pooled mice plasma (CD-1 (ICR) MSE00PLK2, BioIVT) was selected as blank matrix for standards and quality control samples. Sample preparation procedure was adopted from literatures with minor modifications. […] The samples mix were vortexed for 2 minutes then sonicated for 1 min and centrifuged at 6100 g for 10 min. Supernatants were transferred into a new set 96-well plate, and 10 μL were injected for LC-MS/MS analysis. […] The solution was then serially diluted with 50% methanol-water to obtain standard working solutions over a concentration range of 10-2000 ng/ml. The quality control (QC) samples were prepared in three concentrations: 10, 100, and 500 ng/ml.\n(§2) LC-MS/MS system was performed using an Agilent 1290 Infinity HPLC and HiP ALS (Autosampler) coupled with AB Sciex 6500 Q-Trap mass spectrometer. All data were acquired using Analyst (AB SCIEX v1.7.1). […] The mobile phase A was 20 mM ammonium acetate buffer in water and 100% acetonitrile as mobile phase B. A total 7 min gradient run with a flow rate of 0.8 ml/min was implemented. […] The mass spectrometer was operated in a positive mode using scheduled multiple reaction morning (sMRM)."}, "Il6 and Il1b promoters": {"tested_on": "Il6 and Il1b promoters", "experiment": "ChIP-qPCR of transcription factor recruitment to Il6 and Il1b promoters in BMDM", "format": "cell-based, mouse", "settings": "LPS", "method": "Cells were fixed using 0.75% formaldehyde for 10 min followed by 0.125 M glycine to stop the crosslinking reaction. […] Nuclei were pelleted at 1,000 g in a cold microfuge and resuspended in B buffer (50 mM Tris, pH 8.0, 5 mM EDTA and 1% SDS plus inhibitors). […] Nuclear extracts were immunoprecipitated with respective antibodies. The co-immunoprecipitated material was then subjected to qPCR analysis using specific primers."}, "[1]": {"tested_on": "alum induced peritonitis model", "experiment": "Alum-induced peritonitis", "format": "in vivo, mouse"}, "BMDM [2]": {"tested_on": "BMDM", "experiment": "Mitochondrial function in BMDM (TMRM, MitoSOX, cellular ATP)", "format": "cell-based, mouse"}, "BMDM [3]": {"tested_on": "BMDM", "settings": "for recruitment of DRP1 to mitochondria / recruitment of p62 to mitochondria: metformin 0.5 mM"}, "BMDM [4]": {"tested_on": "BMDM", "experiment": "Cytokine secretion by LPS-stimulated BMDM (ELISA)", "format": "cell-based, mouse", "settings": "LPS-stimulated BMDM, metformin 0.5 mM 16 hrs", "text": "Paired antibodies (capture and detection) and standard recombinant mouse IL-1β (R&D Systems), and TNF and IL-6 (eBioscience) were used to determine mouse cytokine concentrations according to manufacturer's instructions."}, "POLγ": {"tested_on": "POLγ", "experiment": "POLγ activity assay in lysates of treated macrophages", "format": "cell-based, mouse"}, "mtDNA": {"tested_on": "mtDNA", "experiment": "mtDNA synthesis and cytosolic Ox-mtDNA in BMDM", "format": "cell-based, mouse", "procedure": "To image mtDNA synthesis, BMDM were stimulated with LPS ([…]) for 4 hrs in the presence of 10 μM EdU. Cells were then washed twice with sterile PBS and fixed in 4% PFA for 15 min followed by permeabilization with 0.02% Triton X-100 for 10 min. EdU staining was performed using a Click-iT EdU Microplate Assay Kit (Thermo Fisher Scientific). In brief, BMDMs were postfixed in EdU fixative for 5 min, and equal volumes of the EdU reaction cocktail, which was prepared immediately before use, were added to each chamber and left overnight. Primary antibody against the mitochondrial marker Atp5b was included in the EdU reaction cocktail. The next day, the BMDM were washed three times with PBS followed by incubation with secondary Alexa antibodies from Life Technologies or Jackson Immuno Research Laboratories. DAPI was used for nuclear counterstaining.\nTotal DNA was isolated using Allprep DNA/RNA Mini Kit (catalogue 80204, Qiagen) according to manufacturer's instructions. mtDNA was quantified by qPCR using primers specific for the mitochondrial D-loop region, cytochrome c oxidase (COX) or a specific region of mtDNA that is not inserted into nuclear DNA (non-NUMT) (Zhong et al., 2018). Nuclear DNA encoding Teri, 18S ribosomal RNA and B2m was used for normalization.\nCellular fractionation was performed using Mitochondrial Isolation kit (89874, ThermoScientific) according to manufacturer's instructions. Cytosolic mtDNA was analyzed as described (Nakahira et al., 2011). For the measurement of Ox-mtDNA, mtDNA was first purified using Allprep DNA/RNA mini kit (Qiagen) from the cytosolic fraction of BMDM as described above. The 8-OH-dG content of the mtDNA was then quantified using an 8-OHdG quantification kit (ab201734), per manufacturer's instructions."}, "NLRP3 inflammasome [5]": {"tested_on": "NLRP3 inflammasome", "experiment": "NLRP3 inflammasome activation in LPS-primed BMDM", "format": "cell-based, mouse"}, "NLRP3 inflammasome [6]": {"tested_on": "NLRP3 inflammasome", "experiment": "NLRP3 inflammasome activation in LPS-primed mouse microglia", "format": "cell-based", "settings": "different NLRP3 activators, metformin 0.5 mM 16 hrs"}, "[7]": {"experiment": "LC-MS/MS metformin concentration in plasma", "settings": "24 hrs after LPS challenge, oral and i.p.", "method": "as §1, §2"}, "BMDM [8]": {"tested_on": "BMDM", "experiment": "Q-PCR quantitation of cytokine mRNAs in LPS-stimulated BMDM", "format": "cell-based, mouse", "procedure": "RNA was extracted using AllPrep DNA/RNA Mini kit, and cDNA was synthesized using SuperScript™ VILO™ cDNA Synthesis Kit. mRNA expression was determined by QPCR in a CFX96 thermal cycler (Biorad) as described (Zhong et al., 2016). Data are presented in arbitrary units and calculated by the 2^(−ΔΔCT) method. Primer sequences were obtained from the NIH qPrimerDepot (http://mouseprimerdepot.nci.nih.gov) and provided by Integrated DNA technologies."}, "[9]": {"settings": "LPS-primed BMDM, metformin 0.5 mM 16 h"}, "[10]": {"settings": "BMDM, LPS 4 hrs, metformin 0.5 mM 16 hrs"}, "[11]": {"settings": "BMDM, metformin 0.5 mM 16 h, LPS 4 h"}, "[12]": {"settings": "BMDM, metformin 0.5 mM 16 h, LPS"}},
  "note": "Where two headings read alike, the source gives them in different places.",
  "data": [
    {"smiles": "CN(C)C(=N)NC(=N)N", "note": "[metformin, N,N-dimethylbiguanide]", "values": [
      {"measurement": "concentration at 1 hr", "setting": "in vivo", "value": "0.44 ± 0.389", "unit": "µg/mL"},
      {"measurement": "c/EBPβ and NFATc1-4 recruitment to the Il6 promoter", "setting": "Il6 and Il1b promoters", "value": "inhibited"},
      {"measurement": "peritoneal IL-1β and IL-6 production", "setting": "[1]; metformin 0, 10, 50 mg/kg 30 min prior to i.p. alum", "value": "dose-dependent decline"},
      {"measurement": "peritoneal TNF production", "setting": "[1]; metformin 10 or 50 mg/kg 30 min prior to i.p. alum", "value": "no effect"},
      {"measurement": "ATP or nigericin induced decrease of mitochondrial membrane potential and increase of mtROS", "setting": "BMDM [2]; [9]", "value": "blunted both responses"},
      {"measurement": "drop in ATP concentration", "setting": "BMDM [2]; LPS-primed versus non-stimulated macrophages", "value": "larger drop"},
      {"measurement": "mitochondrial membrane potential", "setting": "BMDM [2]; non-stimulated macrophages, metformin alone", "value": "decreased"},
      {"measurement": "expression of CMPK2", "setting": "BMDM [3]; [10]", "value": "no effect"},
      {"measurement": "POLγ expression", "setting": "BMDM [3]; BMDM, metformin", "value": "no effect"},
      {"measurement": "AMPK phosphorylation", "setting": "BMDM [3]; BMDM, metformin 0.5 mM 16 h", "value": "increased"},
      {"measurement": "p38 or JNK MAP kinase activation", "setting": "BMDM [3]; BMDM, metformin 0.5 mM 16 hrs, LPS 30 min", "value": "blunted"},
      {"measurement": "nuclear translocation of NFAT family members and c/EBPb", "setting": "BMDM [3]; BMDM, metformin 0.5 mM 16 hrs, LPS 4 hrs", "value": "decreased"},
      {"measurement": "LPS-induced p65/RelA nuclear translocation or phosphorylation", "setting": "BMDM [3]; BMDM, metformin 0.5 mM overnight, LPS", "value": "did not interfere"},
      {"measurement": "STAT1 or STAT3 phosphorylation", "setting": "BMDM [3]; BMDM, metformin pretreatment, LPS", "value": "did not inhibit"},
      {"measurement": "recruitment of DRP1 to mitochondria", "setting": "BMDM [3]; LPS primed cells", "value": "enhancing it"},
      {"measurement": "recruitment of DRP1 to mitochondria", "setting": "BMDM [3]; LPS+ATP challenged macrophages", "value": "not affecting it"},
      {"measurement": "recruitment of p62 to mitochondria", "setting": "BMDM [3]; LPS-primed cells not ATP exposed", "value": "enhanced"},
      {"measurement": "recruitment of p62 to mitochondria", "setting": "BMDM [3]; after LPS+ATP stimulation", "value": "did not affect"},
      {"measurement": "IL-6 secretion", "setting": "BMDM [4]", "value": "inhibited"},
      {"measurement": "TNF release", "setting": "BMDM [4]", "value": "unaffected"},
      {"measurement": "POLγ activity", "setting": "POLγ; lysates of LPS-stimulated macrophages, assay mix lacking exogenous ATP", "value": "decreased"},
      {"measurement": "effect of AMPKα1 deficiency on POLγ expression or activity", "setting": "POLγ; lysates of metformin treated LPS stimulated BMDM", "value": "no effect"},
      {"measurement": "POLγ activity", "setting": "POLγ; lysates of metformin treated LPS-stimulated macrophages, addition of ATP at 10 mM", "value": "fully restored"},
      {"measurement": "inhibition of LPS-induced mtDNA synthesis by EdU-labelling", "setting": "mtDNA; [10]", "value": "confirmed"},
      {"measurement": "LPS-stimulated mtDNA synthesis", "setting": "mtDNA; [9]", "value": "strongly inhibited"},
      {"measurement": "generation of cytoplasmic Ox-mtDNA", "setting": "mtDNA; LPS-primed macrophages challenged with ATP or nigericin, metformin", "value": "blocked generation"},
      {"measurement": "effect of AMPKα1 silencing on LPS-stimulated mtDNA synthesis and its inhibition by metformin", "setting": "mtDNA; shPrkaa1 BMDM", "value": "no effect"},
      {"measurement": "nigericin- and ATP-induced ASC speck formation", "setting": "NLRP3 inflammasome [5]; BMDM, metformin 0.5 mM 16 h", "value": "inhibited"},
      {"measurement": "expression of inflammasome components NLRP3, ASC, pro-Casp1 and NEK7", "setting": "NLRP3 inflammasome [5]; [11]", "value": "no effect"},
      {"measurement": "pro-IL 1β protein", "setting": "NLRP3 inflammasome [5]; [11]", "value": "modestly decreased"},
      {"measurement": "inhibition of nigericin-induced ASC specks", "setting": "NLRP3 inflammasome [5]; BMDM, nigericin", "value": "incomplete"},
      {"measurement": "effect of AMPKα1 ablation on inhibition of Casp1 activation or IL-1β processing and secretion by metformin", "setting": "NLRP3 inflammasome [5]; LPS-primed Ampkα1−/− BMDM stimulated with ATP", "value": "no effect"},
      {"measurement": "LDH release", "setting": "NLRP3 inflammasome [5]; LPS-primed BMDM with NLRP3 agonists, metformin 0.5 mM 16 hrs", "value": "reduced"},
      {"measurement": "gasdermin D (GSDMD) cleavage", "setting": "NLRP3 inflammasome [5]; [9]", "value": "inhibited"},
      {"measurement": "Casp1 activation and pro-IL-1β processing to mature IL-1β", "setting": "NLRP3 inflammasome [5]; LPS-primed macrophages with ATP, nigericin, alum or MSU, metformin 0.5 mM 16 h", "value": "inhibited"},
      {"measurement": "IL-1β and Casp1 p20 release", "setting": "NLRP3 inflammasome [5]; Ndufs4-deficient BMDM, LPS + ATP, metformin 0.5 mM 16 hrs", "value": "did not further reduce"},
      {"measurement": "effect on Casp1 activation and pro-IL-1β processing", "setting": "NLRP3 inflammasome [5]; nigericin-challenged macrophages", "value": "relatively modest"},
      {"measurement": "Casp1 activation and IL-1β secretion", "setting": "NLRP3 inflammasome [5]; p62- and ATG7-deficient macrophages, LPS + ATP", "value": "still inhibited"},
      {"measurement": "Casp1 p20 and IL-1β secretion", "setting": "NLRP3 inflammasome [6]", "value": "abrogated"},
      {"measurement": "circulating concentrations", "setting": "[7]", "value": "equally low"},
      {"measurement": "Il1b and Il6 mRNA after metformin treatment", "setting": "BMDM [8]; AMPKα1 silenced (shPrkaa1) LPS-treated macrophages", "value": "still declined"},
      {"measurement": "decline in Il1b and Il6 mRNA induction by LPS", "setting": "BMDM [8]; BMDM, metformin 0.5 mM 16 h", "value": "30-50%"},
      {"measurement": "induction of Ifnb and Ifng mRNAs", "setting": "BMDM [8]; [12]", "value": "did not inhibit induction"},
      {"measurement": "induction of Il10 mRNA", "setting": "BMDM [8]; [12]", "value": "potentiated induction"},
      {"measurement": "other cytokine and chemokine mRNAs (Tnf, Il12, Il23, Ccl2, Ccl3, Ccl4, Ccl5)", "setting": "BMDM [8]; BMDM, metformin 0.5 mM 16 h, LPS 100 ng/ml 4 hrs", "value": "little effect"},
      {"measurement": "Il1b and Il6 mRNA expression", "setting": "BMDM [8]; LPS-stimulated Il10−/− BMDM", "value": "still inhibited"}
    ]}
  ]
}
